The source made the active and inactive calls.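 Rule for the calls: active = compounds giving half or more protection of infected cells from virus-caused growth loss, again on retest; inactive = the rest.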
System: CEM cells HIV-1 protection, formazan growth assay
Test: NCI AIDS Antiviral Assay
Settings: for IC50: measured here: growth of uninfected CEM cells
Method in brief: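 CEM (human) cells, HIV-1 infected vs uninfected, 5-point dosing, formazan growth read-out. Retest threshold 50% protection.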

CC(=O)NC1C(OCc2ccccc2)OC(COC(=O)CCCCCCCCCCNc2ccc([N+](=O)[O-])c3[nH]c4ccccc4c(=O)c23)C(O)C1OC(C)C(=O)NC(C)C(=O)NC(CCC(N)=O)C(=O)OCc1ccccc1 (stereo unspecified)
EC50: > 166 µM
IC50: > 166 µM

Cn1cc2c(=O)n(OS(=O)(=O)c3ccccc3)c(=O)[nH]c2n1
EC50: > 200 µM
IC50: > 200 µM

COc1ccc(CCc2ncc[nH]2)cc1OC
EC50: > 617 µM
IC50: > 617 µM

C=CCOc1cc2c(ccc1=O)-c1c(cc(OC)c(OC)c1OC)CCC2NC(C)=O (stereo unspecified)
EC50: > 200 µM
IC50: 3.63 µM

O=C1/C(=C\c2ccc(Cl)cc2)SC2SC=C(c3ccc([N+](=O)[O-])cc3)N12 (stereo unspecified)
EC50: > 200 µM
IC50: 26.3 µM

CC(C)(C)OC(=O)NCC(=O)NC1c2ccsc2/C(=N/O)[C@H]1O (stereo partly specified)
EC50: > 200 µM
IC50: > 200 µM

CC1CN=C(Nc2cccc(F)c2)S1 (stereo unspecified)
EC50: 0.191 µM
IC50: > 200 µM

O=[N+]([O-])C(Cl)=C/C(=C(\Cl)SCc1ccccc1)[N+](=O)[O-]
EC50: > 200 µM
IC50: 12 µM

NC(=O)c1csc(C2(O)COC(CO)C2O)n1 (stereo unspecified)
EC50: > 200 µM
IC50: > 200 µM

Cc1occc1C(=S)Nc1ccc(Cl)c(C(=O)OC2CCCC2)c1
EC50: 0.00295 µM
IC50: 16.6 µM

COc1ccc(/C=C/C(=O)NCC(NC(=O)/C=C/c2ccc(OC)c(OC)c2)C(=O)O)cc1OC (stereo unspecified)
EC50: > 200 µM
IC50: > 200 µM

CCn1c2ccc(C(=O)CCCN(C)C)cc2c2cc(C(=O)CCCN(C)C)ccc21
EC50: > 380 µM
IC50: 0.123 µM

COC(=O)C(Cc1ccc(Oc2cc(CC(NC(=O)c3ccccc3)C(=O)OC)ccc2OC)cc1)NC(=O)c1ccccc1 (stereo unspecified)
EC50: > 200 µM
IC50: 16.6 µM

CN1CCc2ccccc2C(C(=O)c2ccc3c(c2)OCO3)C1=O (stereo unspecified)
EC50: > 155 µM
IC50: 107 µM

Cn1c2c(c(=O)n(C)c1=O)CS(=O)c1ccccc1N2 (stereo unspecified)
EC50: > 309 µM
IC50: 234 µM

CC(=O)c1sc(Nc2ccc(Cl)c(Cl)c2)nc1C
outcome: inactive

C[N+]1(C)CCC(C#N)(c2ccccc2)CC1
EC50: > 724 µM

CCCC/S(C)=N/S(=O)(=O)c1ccc(C)cc1 (stereo unspecified)
EC50: > 200 µM
IC50: > 200 µM

Fc1cc(F)c(F)c(S)c1F
outcome: active

CCCCCCCCCCCCCCCCOC1OC(CO)C(O)C(O)C1O (stereo unspecified)
EC50: > 9.33 µM
IC50: > 9.33 µM

CC(=O)O[C@H]1CC[C@H]2[C@@H]3CCC4=C(C(=O)C=CC4(C)OC(C)=O)[C@H]3CC[C@]12C (stereo partly specified)
EC50: > 200 µM
IC50: 13.8 µM

COC(=O)N1C2C(C[C@@]1(C)C(=O)OC)c1ccccc1N2S(=O)(=O)c1ccccc1 (stereo partly specified)
EC50: > 200 µM
IC50: > 200 µM

CCOc1ccc(/C=C2\NC(=S)N(/C=C3\C(=O)Oc4ccccc4C3=O)C2=O)cc1
outcome: inactive

COc1ccccc1/C=C1\NC(=S)N(/C=C2\C(=O)Oc3ccccc3C2=O)C1=O
EC50: > 200 µM
IC50: 81.3 µM

COc1cc(Oc2nc3ccccc3nc2C(=O)O)cc(OC)c1OC
EC50: > 200 µM
IC50: > 200 µM

CC(=O)O[C@H]1C(=O)[C@@]2(C)[C@H]([C@H](OC(=O)c3ccccc3)[C@]3(O)C[C@H](OC(=O)[C@H](O)[C@@H](NC(=O)c4ccccc4)c4ccccc4)C(C)=C1C3(C)C)[C@]1(OC(C)=O)CO[C@@H]1C[C@@H]2O
EC50: > 0.417 µM
IC50: 0.0135 µM

[O-]c1on[n+]2c1c(Nc1ccc(Cl)cc1)nc1ccccc12
EC50: > 115 µM
IC50: > 115 µM

Cc1ccc2c(c1C)CC1(Cc3c(C)ccc(C)c3C1=O)C2=O (stereo unspecified)
EC50: > 100 µM
IC50: > 100 µM

Cc1ccc(C=NC23CC4CC(CC(C4)C2)C3)cc1
EC50: > 257 µM
IC50: > 257 µM

CN(C(=O)C12C3C4C1(C(=O)O)C1C2C3(C(=O)O)C41C(=O)N(C)C(C)(C)C)C(C)(C)C (stereo unspecified)
EC50: > 17.4 µM
IC50: > 17.4 µM

O=C(Nc1nc2ccc([N+](=O)[O-])cc2s1)C(=O)C(C(=O)c1ccncc1)C1OC(=O)c2ccccc21 (stereo unspecified)
EC50: > 186 µM
IC50: 102 µM

COC(=O)C12C3C4C1C1C2C3C41C(=O)N(C(C)C)C(C)C (stereo unspecified)
EC50: > 871 µM
IC50: > 871 µM

O=c1oc2ccccc2c(O)c1C(c1ccc(Cl)cc1)c1c(O)c2ccccc2oc1=O
EC50: > 200 µM
IC50: 26.3 µM

O=C1/C(=C/c2ccccc2)CN(C(=O)OCC(Cl)(Cl)Cl)C/C1=C\c1ccccc1
outcome: inactive

O=C1OC(=O)c2cc3c(cc21)C(=O)O/C3=C\c1ccccc1
outcome: inactive

CN(C)C(=S)SN(C)C(=O)Nc1ccccc1
EC50: > 200 µM
IC50: 13.2 µM

Cn1c(=O)c2c(nc3sc4nc5ccccc5nc4n32)n(C)c1=O
EC50: > 200 µM
IC50: > 200 µM

Cc1cc(S(=O)(=O)NC2=NCCN2Cc2ccccc2)c(S)cc1Cl
EC50: > 200 µM
IC50: 58.9 µM

CCCCn1c(=O)cc(C(=O)O)c2ccccc21
EC50: > 200 µM
IC50: > 200 µM

CC1(C)C2CCC13CS(=O)(=O)N=C3C2 (stereo unspecified)
outcome: inactive

FC(F)(F)c1nc2ccc(SSc3ccc4nc(C(F)(F)F)[nH]c4c3)cc2[nH]1
EC50: > 100 µM
IC50: 91.2 µM

c1cc[c]([Sn]([S]c2cccc3cccnc23)([S]c2cccc3cccnc23)[c]2ccccc2)cc1
outcome: inactive

— PubChem BioAssay AID179 (DTP/NCI, 2004)
